Converted amounts (≈) assume the structure as drawn.
What was measured:
TrpAB = TrpAB (Mycobacterium tuberculosis, UniProt P9WFX9+P9WFY1); type: biochemical
in vitro [1] = settings: mouse, microsomes
in vitro [2] = settings: mouse, hepatocytes
Mtb TrpAB [3] = biological target: T1, Mtb TrpAB (Mycobacterium tuberculosis, UniProt P9WFX9+P9WFY1)
[4] = ref PubChem compound ID 54650477; cited from earlier work
Mtb TrpAB [5] = biological target: T1, Mtb TrpAB; type: biochemical
Mtb [6] = type: cell-based, Mycobacterium tuberculosis
Mtb in J774 macrophages = type: cell-based; settings: day 3 CFU/day 0 CFU
GAPDH = GAPDH counter-check in coupled fluorescence assay; settings: fluorescence assay conditions
Mtb TrpAB [7] = biological target: T1, Mtb TrpAB; type: binding
M. marinum = test: Zebrafish embryo infection, wild-type M. marinum; type: in vivo, Danio rerio (zebrafish); settings: after 5 d of treatment
Mtb TrpAB [8] = biological target: T1, Mtb TrpAB; type: biochemical; remark: listed apart in the source
Mtb [9] = test: microbe, parasite or virus in culture; type: cell-based
[10] = test system: panel of Gram-negative and Gram-positive bacterial species; type: cell-based

T1 sequence (P9WFY1 whole entry): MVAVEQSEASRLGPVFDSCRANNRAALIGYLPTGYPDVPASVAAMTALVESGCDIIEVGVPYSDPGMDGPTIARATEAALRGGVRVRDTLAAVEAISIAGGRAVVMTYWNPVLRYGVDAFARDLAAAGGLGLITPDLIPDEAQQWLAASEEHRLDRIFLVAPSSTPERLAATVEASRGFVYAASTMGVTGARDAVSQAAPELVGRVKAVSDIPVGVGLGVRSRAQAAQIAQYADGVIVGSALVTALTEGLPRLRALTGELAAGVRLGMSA
T1 sequence (P9WFX9 12-421): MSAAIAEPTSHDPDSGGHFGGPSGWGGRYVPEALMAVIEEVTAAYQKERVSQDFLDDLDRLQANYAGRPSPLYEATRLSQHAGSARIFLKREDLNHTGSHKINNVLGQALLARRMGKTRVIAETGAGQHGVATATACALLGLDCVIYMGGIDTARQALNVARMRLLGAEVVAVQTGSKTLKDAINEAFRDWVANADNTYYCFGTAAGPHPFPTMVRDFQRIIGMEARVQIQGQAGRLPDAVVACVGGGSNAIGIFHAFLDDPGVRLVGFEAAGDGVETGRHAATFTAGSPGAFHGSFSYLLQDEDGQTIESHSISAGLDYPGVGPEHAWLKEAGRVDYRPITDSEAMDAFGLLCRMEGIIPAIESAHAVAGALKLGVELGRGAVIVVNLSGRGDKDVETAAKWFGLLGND
Chain of TrpAB (P9WFX9 12-421): as above
Chain of TrpAB (P9WFY1 whole entry): as the sequence (P9WFY1 whole entry) above

N#C[C@@H]1N[C@@H](CO)[C@H]1c1ccc(-c2ccccc2F)cc1 [BRD4592, (2R,3S,4R)-3-(2′-fluoro-[1,1′-biphenyl]-4-yl)-4-(hydroxymethyl)azetidine-2-carbonitrile]
reversibility of inhibition (TrpAB): reversible inhibitor
microsomal CLint at 1 μM (in vitro [1]): 336 µL/min/mg
hepatocyte CLint at 1 μM (in vitro [2]): 47.2 µL/min/1e6 cells
Tm of TrpAB with compound (Mtb TrpAB [3]): 81.6 ± 0.2 °C
increase of Tm of TrpAB in active β^C conformation (Mtb TrpAB [3]): 8 °C
stabilization of the open conformation (Mtb TrpAB [3]): did not stabilize
activity in 36 screens reported in PubChem [4]: no activity
initial inhibition of the β-reaction (Mtb TrpAB [5]): more than 200 fold
kcat^β under saturating compound (Mtb TrpAB [5]): 0.00433 ± 0.00017 s⁻¹
mode of inhibition with respect to indole (Mtb TrpAB [5]): uncompetitive
rate of L-Trp production slower than uninhibited enzyme (Mtb TrpAB [5]): 750 times
reduction of colony-forming units (CFUs) of Mtb cultures (Mtb [6]): 2–3 logs
restriction of Mtb growth in macrophages compared to DMSO (Mtb in J774 macrophages): eight-fold
inhibition of GAPDH activity (GAPDH): not found to inhibit
increase in affinity of TrpAB for L-Trp (Mtb TrpAB [7]): 4.5 fold
restriction of M. marinum growth in zebrafish embryos compared to DMSO (M. marinum): ~ 1.5 logs
initial inhibition of the α-reaction (Mtb TrpAB [8]): more than 200 fold
kcat^α under saturating compound (Mtb TrpAB [8]): 0.0013 ± 0.00017 s⁻¹
mode of inhibition versus IGP (Mtb TrpAB [8]): uncompetitive
mode of inhibition versus L-Ser (Mtb TrpAB [8]): mixed-type inhibitor
α value (mixed-type inhibition) (Mtb TrpAB [8]): 0.81 ± 0.06
α values (mixed model) (Mtb TrpAB [8]): < 0.00001
effect of L-Trp addition to growth medium on lethal effects (Mtb [9]; 1 mM L-Trp supplementation): rescued
MIC90 (Mtb [9]; Mycobacterium tuberculosis, read-out: MIC90 (minimal concentration needed to inhibit 90% of bacterial growth)): 3 µM (≈ 0.847 µg/mL)
activity among the stereoisomers of the azetidine (Mtb [9]; three stereogenic centers, eight stereoisomeric forms): only the BRD4592 stereoisomer was active
spectrum of activity against bacterial species [10]: active against several mycobacterial species but not other bacteria tested

— PMC6886523 (Nature chemical biology, 2017)
